Assay [1] relates to Rattus norvegicus. Description: Effect on nitrogen balance in Wistar rat diabetic model assessed as residual urinary nitrogen at 10 mg/day, ip for 6 days measured 6 hrs after last dose relative to diabetic control. The format is functional, Urine.
In assay [2] the test system is Rattus norvegicus. Description: Effect on nitrogen balance in Wistar rat diabetic model assessed as absorbed nitrogen at 10 mg/day, ip for 6 days measured 6 hrs after last dose relative to non-diabetic control. In kind it is functional.
Assay [3] deals with Rattus norvegicus. Description: Effect on nitrogen balance in Wistar rat diabetic model assessed as residual fecal nitrogen at 10 mg/day, ip for 6 days measured 6 hrs after last dose relative to diabetic control. The format is functional, Feces.
Assay [4] relates to Rattus norvegicus. Nature of the assay: Effect on nitrogen balance in Wistar rat diabetic model assessed as residual urinary nitrogen at 10 mg/day, ip for 6 days measured 6 hrs after last dose relative to non-diabetic control. In kind it is functional, Urine.
Assay [5] has as its system Rattus norvegicus. Description: Effect on nitrogen balance in Wistar rat diabetic model assessed as residual fecal nitrogen at 10 mg/day, ip for 6 days measured 6 hrs after last dose relative to non-diabetic control. In kind it is functional, Feces.
Assay [6] has as its system Rattus norvegicus. Nature of the assay: Effect on nitrogen balance in Wistar rat diabetic model assessed as retained nitrogen at 10 mg/day, ip for 6 days measured 6 hrs after last dose relative to non-diabetic control. In kind it is functional.
The subject of assay [7] is Rattus norvegicus. Nature of the assay: Effect on nitrogen balance in Wistar rat diabetic model assessed as absorbed nitrogen at 10 mg/day, ip for 6 days measured 6 hrs after last dose relative to diabetic control. The format is functional.
The test system of assay [8] is Rattus norvegicus. Nature of the assay: Effect on nitrogen balance in Wistar rat diabetic model assessed as retained nitrogen at 10 mg/day, ip for 6 days measured 6 hrs after last dose relative to diabetic control. The format is functional.

On to `CC(C)=CCC[C@](C)(O[C@@H]1O[C@H](CO[C@@H]2OC[C@H](O)[C@H](O)[C@H]2O)[C@@H](O)[C@H](O)[C@H]1O)[C@H]1CC[C@]2(C)[C@@H]1[C@H](O)C[C@@H]1[C@@]3(C)CC[C@H](O[C@@H]4O[C@H](CO)[C@@H](O)[C@H](O)[C@H]4O[C@@H]4O[C@H](CO)[C@@H](O)[C@H](O)[C@H]4O)C(C)(C)[C@@H]3CC[C@]12C` [GINSENOSIDE RB2], for which the Activity came to 75% with Rattus norvegicus [1]; 225% in the assay with Rattus norvegicus [2]; 93% in the assay on Rattus norvegicus [3]; 223% in the assay on Rattus norvegicus [4]; 186% in the assay with Rattus norvegicus [5]; 313% in the assay with Rattus norvegicus [6]. The values for the Activity with Rattus norvegicus [7] and in the assay on Rattus norvegicus [8] were 104% and 415%, respectively.

The values are drawn from ChEMBL document CHEMBL1147323, “The effect of ginsenoside-Rb2 on nitrogen balance” (1989).
